One assay has as its target T1, Keap1 (Homo sapiens, UniProt Q14145).
T1 construct: GST-Keap1-DGR, residues 315–598 (DGR domain)
The assay can be described thus: FCS displacement of TAMRA-Nrf2 ETGE peptide from purified GST-Keap1-DGR; supported by co-IP. Format: binding.

Assay [1] concerns the target Nrf2 9mer peptide, FITC-labeled (Homo sapiens) (UniProt Q16236). The assay can be described thus: FP. The settings on record: cited from earlier work.
For assay [2], the target named is Nrf2 8mer peptide (Homo sapiens). The assay can be described thus: SPR. Particulars: cited from earlier work.

Keap1 (from UniProt Q14145), sequence (Q14145 whole entry): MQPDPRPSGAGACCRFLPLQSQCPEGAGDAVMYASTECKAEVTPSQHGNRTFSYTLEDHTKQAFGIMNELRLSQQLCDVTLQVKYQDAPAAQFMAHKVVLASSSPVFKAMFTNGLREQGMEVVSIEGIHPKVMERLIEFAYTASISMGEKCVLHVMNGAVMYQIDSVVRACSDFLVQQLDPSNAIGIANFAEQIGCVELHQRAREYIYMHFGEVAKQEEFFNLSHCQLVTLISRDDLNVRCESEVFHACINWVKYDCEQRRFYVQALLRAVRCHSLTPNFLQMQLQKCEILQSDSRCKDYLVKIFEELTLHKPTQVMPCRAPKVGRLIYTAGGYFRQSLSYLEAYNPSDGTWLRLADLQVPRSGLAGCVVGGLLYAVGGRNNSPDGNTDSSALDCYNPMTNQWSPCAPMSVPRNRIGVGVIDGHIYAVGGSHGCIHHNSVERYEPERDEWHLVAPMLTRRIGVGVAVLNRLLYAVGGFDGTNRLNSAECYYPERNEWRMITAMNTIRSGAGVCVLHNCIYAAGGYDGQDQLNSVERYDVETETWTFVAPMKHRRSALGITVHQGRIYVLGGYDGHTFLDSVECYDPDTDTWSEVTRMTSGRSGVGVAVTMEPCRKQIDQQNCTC
T1 sequence (Q14145 315-598): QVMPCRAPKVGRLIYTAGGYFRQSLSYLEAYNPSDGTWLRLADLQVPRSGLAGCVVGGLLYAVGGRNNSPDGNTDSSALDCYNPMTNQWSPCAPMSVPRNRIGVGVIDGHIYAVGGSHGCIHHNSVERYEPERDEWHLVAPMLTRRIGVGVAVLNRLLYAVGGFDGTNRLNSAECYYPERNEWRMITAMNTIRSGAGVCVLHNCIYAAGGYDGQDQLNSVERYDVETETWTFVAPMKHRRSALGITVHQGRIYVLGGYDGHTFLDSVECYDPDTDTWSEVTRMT
Nrf2 9mer peptide, FITC-labeled (Homo sapiens), sequence (Q16236 whole entry): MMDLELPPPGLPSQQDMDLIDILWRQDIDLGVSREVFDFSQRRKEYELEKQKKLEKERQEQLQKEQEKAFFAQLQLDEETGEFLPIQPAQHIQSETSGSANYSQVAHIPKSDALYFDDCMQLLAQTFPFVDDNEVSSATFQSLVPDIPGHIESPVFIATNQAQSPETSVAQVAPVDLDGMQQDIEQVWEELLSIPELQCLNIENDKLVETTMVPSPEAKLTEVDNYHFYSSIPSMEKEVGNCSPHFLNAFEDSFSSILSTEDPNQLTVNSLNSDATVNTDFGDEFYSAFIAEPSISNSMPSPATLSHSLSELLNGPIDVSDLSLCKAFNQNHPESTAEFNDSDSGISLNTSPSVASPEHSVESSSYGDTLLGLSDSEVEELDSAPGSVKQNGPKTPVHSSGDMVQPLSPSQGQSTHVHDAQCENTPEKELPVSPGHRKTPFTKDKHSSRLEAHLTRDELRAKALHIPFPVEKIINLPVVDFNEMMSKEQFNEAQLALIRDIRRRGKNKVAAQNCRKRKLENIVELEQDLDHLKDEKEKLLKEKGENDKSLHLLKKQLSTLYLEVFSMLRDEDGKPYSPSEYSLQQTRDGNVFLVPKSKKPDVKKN

On Keap1, chlorophyllin sodium copper salt registered an IC50 of 35.7 µM. Regarding `O=C1C=Cc2cc(Br)ccc2C1=O` [bonaphton, 6-bromo-1,2-naphthoquinone], the IC50 on Keap1 stood at 37.9 µM.

For Keap1 (from UniProt Q14145), the results for the Kd in assay [1] and in assay [2] were 0.0651 µM and above 1 µM, respectively.

The record behind these values is publication PMC5479848, “Drug-Repositioning Screening for Keap1-Nrf2 Binding Inhibitors using Fluorescence Correlation Spectroscopy” (Scientific Reports, 2017).
